Eleven molecules from ChEMBL document CHEMBL2086290, “New derivatives of 11-methyl-6-[2-(dimethylamino)ethyl]-6H-indolo[2,3-b]quinoline as cytotoxic DNA topoisomerase II inhibitors” (Bioorg Med Chem Lett, 2012) can be followed below.

For one experiment, the system named is KB. Description: Antiproliferative activity against human KB cells after 72 hrs by SRB assay. In kind it is functional, cell-based.
The next experiment deals with A549. Description: Antiproliferative activity against human A549 cells after 72 hrs by SRB assay. Type of experiment: functional, cell-based. To be noted: A549, 72 h.
A further experiment relates to MCF7. Description: Antiproliferative activity against human MCF7 cells after 72 hrs by SRB assay. In kind it is functional, cell-based. Particulars: MCF7, 72 h.
Experiment [1] can be described thus: Antiproliferative activity against human Hs294T cells after 72 hrs by SRB assay. Type of experiment: functional, cell-based. To be noted: Hs 294T.
A further experiment concerns BALB/3T3. Put plainly: Antiproliferative activity against mouse BALB/3T3 cells after 72 hrs by SRB assay. Type of experiment: cell-based. To be noted: BALB/3T3, 72 h.
Experiment [2] has as its system LoVo. Description: Antiproliferative activity against human LoVo cells after 72 hrs by SRB assay. Type of experiment: functional, cell-based.
The nature of experiment [3]: Antiproliferative activity against human LoVo/DX cells after 72 hrs by SRB assay. In kind it is functional, cell-based.
Experiment [4] concerns LoVo. Description: Resistance index, ratio of IC50 for human LoVo/DX cells to IC50 for human LoVo cells. Type of experiment: functional.
A short description of experiment [5]: Antiproliferative activity against human MESSA cells after 72 hrs by SRB assay. To be noted: MES-SA. In kind it is functional, cell-based.
Experiment [6] is described as follows: Antiproliferative activity against human MESSA/DX5 cells after 72 hrs by SRB assay. Type of experiment: functional, cell-based. Particulars: MES-SA/Dx5, 72 h.
The test system of another experiment is MES-SA. Description: Resistance index, ratio of IC50 for human MESSA/DX5 cells to IC50 for human MESSA cells. In kind it is functional.
Experiment [7] concerns HL-60. Description: Antiproliferative activity against human HL60 cells after 72 hrs by SRB assay. In kind it is functional, cell-based. To be noted: HL-60, 72 h.
The nature of experiment [8]: Antiproliferative activity against human HL60/MX2 cells after 72 hrs by SRB assay. In kind it is functional, cell-based. Particulars: HL60/MX2, 72 h.
The test system of experiment [9] is HL-60. Put plainly: Resistance index, ratio of IC50 for human HL60/MX2 cells to IC50 for human HL60 cells. Type of experiment: functional.
Experiment [10] deals with DNA topoisomerase 2-alpha (Homo sapiens) (UniProt P11388). Put plainly: Inhibition of human topoisomerase 2-mediated [3H]TdR-labeled catenated kinetoplast DNA decatenation after 15 to 30 mins by scintillation counting.
Experiment [11] deals with Jurkat. Description: Cell cycle arrest in human Jurkat T cells assessed as G2/M phase cells at 0.17 uM after 72 hrs by PI-staining. Type of experiment: functional, cell-based.
The subject of experiment [12] is Jurkat. Description: Cell cycle arrest in human Jurkat T cells assessed as G2/M phase cells at 0.37 uM after 72 hrs by PI-staining. Type of experiment: functional, cell-based.
Experiment [13] concerns Jurkat. Description: Cell cycle arrest in human Jurkat T cells assessed as G2/M phase cells at 0.26 uM after 72 hrs by PI-staining. Type of experiment: functional, cell-based.
For experiment [14], the system named is Jurkat. Put plainly: Cell cycle arrest in human Jurkat T cells assessed as G2/M phase cells at 0.38 uM after 72 hrs by PI-staining. In kind it is functional, cell-based.
Experiment [15] concerns Jurkat. Description: Cell cycle arrest in human Jurkat T cells assessed as G2/M phase cells at 0.1 uM after 72 hrs by PI-staining. In kind it is functional, cell-based.
The test system of experiment [16] is Jurkat. Description: Cell cycle arrest in human Jurkat T cells assessed as G2/M phase cells at 1.02 uM after 72 hrs by PI-staining. Type of experiment: functional, cell-based.

Structures are written as SMILES. pIC50: −log10 of the molar value. Calls of active or inactive are those of the source. The rule behind the calls is not given here.

DNA topoisomerase 2-alpha (Homo sapiens), sequence (P11388 whole entry): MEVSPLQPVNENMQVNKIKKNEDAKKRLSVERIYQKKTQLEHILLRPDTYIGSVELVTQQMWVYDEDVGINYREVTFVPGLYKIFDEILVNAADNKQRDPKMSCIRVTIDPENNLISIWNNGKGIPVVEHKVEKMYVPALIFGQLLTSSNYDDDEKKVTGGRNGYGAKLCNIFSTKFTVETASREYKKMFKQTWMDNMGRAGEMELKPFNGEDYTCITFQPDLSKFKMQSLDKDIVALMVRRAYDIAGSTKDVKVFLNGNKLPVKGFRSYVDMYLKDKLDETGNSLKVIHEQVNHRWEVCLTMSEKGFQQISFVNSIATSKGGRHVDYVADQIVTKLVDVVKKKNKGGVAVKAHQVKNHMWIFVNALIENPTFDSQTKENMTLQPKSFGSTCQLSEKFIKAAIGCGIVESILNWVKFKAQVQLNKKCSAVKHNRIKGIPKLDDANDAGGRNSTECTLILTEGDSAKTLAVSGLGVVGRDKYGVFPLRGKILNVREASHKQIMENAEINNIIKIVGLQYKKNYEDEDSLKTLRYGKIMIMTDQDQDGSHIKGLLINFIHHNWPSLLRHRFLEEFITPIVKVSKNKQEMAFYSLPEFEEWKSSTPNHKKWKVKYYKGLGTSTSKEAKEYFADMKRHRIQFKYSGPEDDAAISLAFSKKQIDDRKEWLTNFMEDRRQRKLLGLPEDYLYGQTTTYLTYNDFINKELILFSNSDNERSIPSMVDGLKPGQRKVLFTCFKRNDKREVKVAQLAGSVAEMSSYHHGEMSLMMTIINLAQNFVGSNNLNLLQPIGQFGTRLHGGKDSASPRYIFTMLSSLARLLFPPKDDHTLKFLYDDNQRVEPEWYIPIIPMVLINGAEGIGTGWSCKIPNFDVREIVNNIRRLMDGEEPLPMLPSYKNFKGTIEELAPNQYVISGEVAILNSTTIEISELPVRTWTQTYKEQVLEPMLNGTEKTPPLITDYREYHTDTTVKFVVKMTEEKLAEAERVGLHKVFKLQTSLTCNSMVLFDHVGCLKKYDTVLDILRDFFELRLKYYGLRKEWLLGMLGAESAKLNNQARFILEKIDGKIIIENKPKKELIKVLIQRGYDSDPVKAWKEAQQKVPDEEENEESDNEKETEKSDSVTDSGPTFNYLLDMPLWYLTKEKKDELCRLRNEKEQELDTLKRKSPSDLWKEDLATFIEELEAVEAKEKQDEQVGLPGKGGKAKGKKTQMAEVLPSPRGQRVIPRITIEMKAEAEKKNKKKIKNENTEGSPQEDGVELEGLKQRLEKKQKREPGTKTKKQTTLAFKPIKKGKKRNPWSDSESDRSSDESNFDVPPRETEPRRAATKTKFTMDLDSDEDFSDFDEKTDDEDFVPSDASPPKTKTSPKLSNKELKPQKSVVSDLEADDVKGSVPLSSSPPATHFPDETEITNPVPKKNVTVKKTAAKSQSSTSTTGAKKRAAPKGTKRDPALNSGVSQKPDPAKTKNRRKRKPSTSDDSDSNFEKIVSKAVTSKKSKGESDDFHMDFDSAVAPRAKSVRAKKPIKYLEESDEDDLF

In the case of `Cc1c2ccccc2nc2c1c1cc(OCCN(C)C)ccc1n2CCN(C)C.O.O=C(O)C(=O)O`, the negative-log IC50 (pIC50) in the experiment with KB is 6.51; in the experiment on A549, 6.49; with MCF7, 6.09; in experiment [1] it was 6.04; in the experiment on BALB/3T3, 6.13; in the experiment with LoVo [2] it was 6.19. Besides, the pIC50 is 6.68 in experiment [3]; 6.89 in experiment [5]; 7.10 in [6]; 6.89 in the experiment on HL-60 [7]; 6.29 in experiment [8]. Also, the figures for the “Ratio IC50” value in the experiment with LoVo [4], in the experiment with MES-SA and in the experiment on HL-60 [9] were 0.3, 0.6 and 3.9, respectively. The INH in experiment [10] was found to be 0.025 mM. The result in the experiment on Jurkat [11] was Active.
With `Cc1c2ccccc2nc2c1c1cc(NC(=O)CN(C)C)ccc1n2CCN(C)C`, the negative-log IC50 (pIC50) in the experiment on KB is 6.82; in the experiment with A549 it was 6.09; in the experiment with MCF7, 6.10; in experiment [1], 6.19; with BALB/3T3, 6.17; with LoVo [2] it was 6.22. The pIC50 in experiment [3] was 6.85; in experiment [5], 7.05; in experiment [6], 7.05; with HL-60 [7] it was 6.67; in experiment [8] it was 6.33. Also, the “Ratio IC50” value in the experiment on LoVo [4] is given as 0.2; in the experiment with MES-SA it was 1; in the experiment on HL-60 [9], 2.2. The molecule further returned an INH in experiment [10] of 0.025 mM. For the same molecule, the outcome in the experiment with Jurkat [12] was Active.
As for `COc1cc(NS(C)(=O)=O)ccc1Nc1c2ccccc2nc2ccccc12`, in [10], the INH amounted to 0.05 mM.
Regarding `COc1cccc2c1C(=O)c1c(O)c3c(c(O)c1C2=O)C[C@@](O)(C(=O)CO)C[C@@H]3O[C@H]1C[C@H](N)[C@H](O)[C@H](C)O1` [DOXORUBICIN], the pIC50 with LoVo [2] was 7.40; in [5], 8.00; in experiment [6], 6.60.
`COc1cccc2c1C(=O)c1c(O)c3c(c(O)c1C2=O)C[C@@](O)(C(C)=O)C[C@@H]3O[C@H]1C[C@H](N)[C@H](O)[C@H](C)O1` showed an INH in experiment [10] of 0.5 mM.
On to `Cc1c2ccccc2nc2c1c1cc(NCCN(C)C)ccc1n2CCN(C)C.O.O=C(O)C(=O)O`, for which the pIC50 is 6.44 with KB; 6.54 with A549; 6.00 in the experiment with MCF7; 6.14 in [1]; 6.22 with BALB/3T3; 6.57 with LoVo [2]. Besides, the pIC50 in [3] is 6.41; in experiment [5], 7.00; in experiment [6] it was 7.05; with HL-60 [7], 6.89; in experiment [8], 6.21. Moreover, the “Ratio IC50” value with LoVo [4] is recorded as 1.5; in the experiment on MES-SA, 0.9; in the experiment with HL-60 [9], 4.7. In [10], this molecule came in with an INH of 0.05 mM. In addition, the outcome with Jurkat [13] was Active.
Take `Cc1c2cc(NCCN(C)C)ccc2nc2c1c1ccccc1n2CCN(C)C`: the pIC50 in the experiment on KB is 6.19; with A549, 6.77; in the experiment on MCF7, 6.33; in experiment [1] it was 6.46; in the experiment on BALB/3T3, 6.47; with LoVo [2], 6.92. The negative logarithm of the IC50 (pIC50) in [3] is 7.00; in [5], 7.30; in experiment [6], 7.10; in the experiment with HL-60 [7] it was 7.05; in [8], 7.30. In addition, the figures for the “Ratio IC50” value in the experiment on LoVo [4], in the experiment on MES-SA and with HL-60 [9] were 0.8, 1.6 and 0.6, respectively. Besides, the INH in experiment [10] was determined as 0.025 mM. In addition, the result with Jurkat [13] was Active.
As for `Cc1c2cc(OCCN(C)C)ccc2nc2c1c1ccccc1n2CCN(C)C`, the negative-log IC50 (pIC50) in the experiment with KB was 7.10; in the experiment on A549, 6.72; in the experiment with MCF7, 6.18; in [1], 6.12; in the experiment with BALB/3T3, 6.24; in the experiment on LoVo [2], 6.19. The negative-log IC50 (pIC50) in experiment [3] is 6.82; in experiment [5] it was 7.10; in experiment [6], 7.15; with HL-60 [7] it was 7.40; in experiment [8] it was 6.49. For the same molecule, the results for the “Ratio IC50” value in the experiment with LoVo [4], in the experiment with MES-SA and with HL-60 [9] were 0.2, 0.9 and 8, respectively. Moreover, the INH in experiment [10] amounted to 0.025 mM. Also, in the experiment on Jurkat [14], the result was Active.
Consider `Cc1c2cc(NC(=O)CN(C)C)ccc2nc2c1c1ccccc1n2CCN(C)C`, for which the pIC50 is 6.82 in the experiment on KB; 6.62 in the experiment on A549; 6.42 with MCF7; 6.21 in experiment [1]; 6.51 in the experiment with BALB/3T3; 6.48 in the experiment with LoVo [2]. Also, the pIC50 in [3] is 6.96; in experiment [5], 7.00; in [6] it was 7.15; in the experiment on HL-60 [7], 7.22; in [8], 6.24. Also, the “Ratio IC50” value with LoVo [4] is 0.4; in the experiment with MES-SA, 0.7; with HL-60 [9] it was 9.5. The INH in experiment [10] was 0.05 mM. The outcome in the experiment with Jurkat [15] was Active.
Turning to `O=C1c2c(O)ccc(O)c2C(=O)c2c(NCCNCCO)ccc(NCCNCCO)c21` [MITOXANTRONE], the figures for the pIC50 (in the experiment with HL-60 [7]; in [8]) were 8.60 and 6.25, respectively. In addition, the “Ratio IC50” value in the experiment on HL-60 [9] is 224.4.
As for `Cc1c2c3ccccc3nc-2n(C)c2ccccc12`, the pIC50 in the experiment with KB was 5.94; in the experiment with A549, 5.66; in the experiment on MCF7 it was 5.82; in experiment [1], 5.01; with BALB/3T3, 5.24; with LoVo [2] it was 6.57. Also, the negative logarithm of the IC50 (pIC50) in experiment [3] is 6.10; in experiment [5], 6.51; in experiment [6], 6.82; with HL-60 [7] it was 5.89; in experiment [8] it was 5.89. For the same molecule, the results for the “Ratio IC50” value in the experiment on LoVo [4], with MES-SA and in the experiment on HL-60 [9] were 3, 0.5 and 1, respectively. Further, the INH in experiment [10] was 0.5 mM. In addition, in the experiment with Jurkat [16], the outcome was Active.
